The structures appear in SMILES notation.

Chain of human, KCNT1 (Q5JUK3 whole entry): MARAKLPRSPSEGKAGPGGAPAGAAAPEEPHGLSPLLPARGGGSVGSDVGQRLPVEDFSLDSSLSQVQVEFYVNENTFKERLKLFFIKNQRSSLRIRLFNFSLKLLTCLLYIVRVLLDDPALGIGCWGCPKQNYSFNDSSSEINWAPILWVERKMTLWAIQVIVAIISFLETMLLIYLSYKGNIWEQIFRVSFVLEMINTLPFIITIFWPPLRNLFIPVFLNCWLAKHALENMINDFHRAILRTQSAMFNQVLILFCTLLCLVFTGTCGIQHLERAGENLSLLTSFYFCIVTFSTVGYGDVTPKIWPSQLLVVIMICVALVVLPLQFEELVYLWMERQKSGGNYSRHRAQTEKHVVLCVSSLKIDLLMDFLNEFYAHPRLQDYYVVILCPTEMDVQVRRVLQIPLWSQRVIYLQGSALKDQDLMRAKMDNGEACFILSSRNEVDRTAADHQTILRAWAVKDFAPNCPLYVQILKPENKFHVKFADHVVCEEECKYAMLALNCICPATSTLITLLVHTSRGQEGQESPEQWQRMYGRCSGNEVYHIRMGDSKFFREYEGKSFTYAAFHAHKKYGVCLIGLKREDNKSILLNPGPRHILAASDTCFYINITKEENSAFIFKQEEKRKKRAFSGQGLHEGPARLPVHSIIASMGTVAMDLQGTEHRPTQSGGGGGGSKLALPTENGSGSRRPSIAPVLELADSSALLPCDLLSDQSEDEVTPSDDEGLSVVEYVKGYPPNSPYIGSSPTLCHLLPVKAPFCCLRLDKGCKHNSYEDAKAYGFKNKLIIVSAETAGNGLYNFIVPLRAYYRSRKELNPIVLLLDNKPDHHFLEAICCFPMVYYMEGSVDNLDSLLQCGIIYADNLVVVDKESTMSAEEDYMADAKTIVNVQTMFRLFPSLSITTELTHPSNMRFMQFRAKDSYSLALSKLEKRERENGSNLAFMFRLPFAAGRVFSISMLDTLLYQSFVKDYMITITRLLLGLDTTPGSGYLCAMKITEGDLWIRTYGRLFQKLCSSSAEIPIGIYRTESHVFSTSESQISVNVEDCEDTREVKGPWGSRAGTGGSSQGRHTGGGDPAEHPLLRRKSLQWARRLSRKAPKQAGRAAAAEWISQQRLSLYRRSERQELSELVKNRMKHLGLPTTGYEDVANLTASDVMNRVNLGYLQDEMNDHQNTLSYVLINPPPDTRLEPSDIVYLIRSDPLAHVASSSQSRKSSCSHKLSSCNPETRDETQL

This assay concerns the target human, KCNT1 (Homo sapiens (Human), UniProt Q5JUK3). Put plainly: FLIPR Tl/K Flux Assay. It counts as cell-based. To be noted: HEK293 cells stably expressing human KCNT1; Tl+ flux stimulated with EC80 of agonist Loxapine. As for the experimental part: HEK293 cells stably expressing human, KCNT1 were cultured in DMEM, 10% FBS, 100 U/mL penicillin-streptomycin and […] puromycin for selection purposes. One day before the assay, cells were detached using TrypLE™ Express and counted using a cell counter. Only cells with >85% viability were used for the assay. […] The cells were incubated overnight at 37° C., 5% (v/v) CO2.
On the day of the assay, the reagents were prepared following the FLIPR® Potassium Assay Kit manual: prepare 2× dye solution, dilute the dye with assay buffer (20 mM HEPES in 1× HBSS, PH7.4), addition of probenecid to a final concentration of 5 mM, and vortexed vigorously for 1-2 minutes. The cell plate was flicked to remove medium and tapped on paper towels to remove excess media. […] The cell plate was moved to a plate shaker, agitated at 600 rpm for two minutes, and then incubated at 25° C. for one hour.
The compounds were prepared in DMSO and transferred to a 384-well compound plate (PP, low binding), referred to as a source plate. Reference agonist (300 nM) compound and test inhibitor (10 mM) compounds were added to the compound plate and a 4-fold serial dilution was performed in DMSO. Using an ECHO dispenser, compounds were dispensed at 90 nL/well from the source plate to a 384-well compound plate (PP, low binding). After the dispensing was complete, 30 µL/well assay buffer was added to the compound plate and mixed for two minutes on a plate shaker. The cell plate, compound plate, and tips were loaded into the FLIPR instrument, and a transfer of 10 μl of 3× compound to the cell plate was initiated. The treated cell plate was kept at in the dark at 25° C. for 30 minutes. Chloride-free stimulation buffer containing 4× 2 mM Tl+ and 4×EC80 of agonist Loxapine was loaded into a 384-well compound plate (PP, low binding). After the 30-minute incubation, the cell plate, compound plate containing stimulation buffer, and FLIPR tips were loaded into the FLIPR instrument. After a baseline read, the FLIPR initiates a transfer of 10 μL of stimulation buffer containing Loxapine to the cell plate. The plate was read for 160 sec with 1 second interval reads to obtain the data.
The normalized fluorescence reading (RFU) was calculated as shown follow, while Fmax and Fmin stand for maximum and minimum of signal during defined time window. The IC50 was calculated by fitting % inhibition against log of compound concentrations with Hill equation using XLfit.
The IC50 is the point on the concentration scale where inhibition reaches its midpoint. Low readings indicate greater potency in that assay, high ones weaker potency in that assay. `O=C(N[C@H]1CCCc2oc(-c3ccnc(C(F)(F)F)c3)nc21)c1cn(C(F)(F)F)nc1C(F)F` [Compound I-506a, (S)-3-(Difluoromethyl)-1-(trifluoromethyl)-N-(2-(2-(trifluoromethyl)pyridin-4-yl)-4,5,6,7-tetrahydrobenzo[d]oxazol-4-yl)-1H-pyrazole-4-carboxamide] displayed an IC50 of under 250 nM.

Take `Cn1nc(C(F)(F)F)cc1C(=O)N[C@H]1CCCn2nc(-c3ccnc(C4CC4)c3)cc21` [Compound I-64a]: the IC50 is under 250 nM.

The compound `Cc1cnc(C(F)(F)F)cc1-n1cc2c(n1)CC[C@@H]2NC(=O)c1cccc(C#N)c1` [Compound I-235a, (S)-3-Cyano-N-(2-(5-methyl-2-(trifluoromethyl)pyridin-4-yl)-2,4,5,6-tetrahydrocyclopenta[c]pyrazol-4-yl)benzamide] displayed an IC50 of under 250 nM.

The compound `O=C(N[C@H]1CCn2nc(-c3cc(C(F)(F)F)ncc3F)cc21)C12CC(CC(F)F)(C1)C2` [Compound I-558a, (S)-3-(2,2-Difluoroethyl)-N-(2-(5-fluoro-2-(trifluoromethyl)pyridin-4-yl)-5,6-dihydro-4H-pyrrolo[1,2-b]pyrazol-4-yl)bicyclo[1.1.1]pentane-1-carboxamide] showed an IC50 of under 250 nM.

`N#Cc1cc(C(=O)N[C@H]2CCn3nc(-c4ccnc(C(F)(F)F)c4)cc32)cc(C(F)(F)F)c1` [Compound I-288a, (S)-3-Cyano-5-(trifluoromethyl)-N-(2-(2-(trifluoromethyl)pyridin-4-yl)-5,6-dihydro-4H-pyrrolo[1,2-b]pyrazol-4-yl)benzamide]: the half-inhibitory concentration (IC50) was under 250 nM.

Take `COc1cc(-n2cc3c(n2)CCCC3NC(=O)c2cc(C(F)(F)F)nn2C)ccn1` (racemic) [Compound I-25, (rac)-N-(2-(2-Methoxypyridin-4-yl)-4,5,6,7-tetrahydro-2H-indazol-4-yl)-1-methyl-3-(trifluoromethyl)-1H-pyrazole-5-carboxamide]: the IC50 was 250 to 500 nM.

Compound `Cn1nc(C(F)(F)F)cc1C(=O)N[C@H]1CCn2nc(-c3ccnc(C(F)(F)F)c3)cc21` [Compound I-123a, (S)-1-methyl-3-(trifluoromethyl)-N-(2-(2-(trifluoromethyl)pyridin-4-yl)-5,6-dihydro-4H-pyrrolo[1,2-b]pyrazol-4-yl)-1H-pyrazole-5-carboxamide] returned an IC50 of under 250 nM.

For `O=C(N[C@H]1CCCc2cnc(-c3ccnc(C(F)(F)F)c3)cc21)c1cc(F)cc(F)c1` [Compound I-461a], the IC50 was under 250 nM.

In turn, `COc1cc(C(=O)N[C@H]2CCCn3nc(-c4ccnc(C(F)(F)F)c4)cc32)nc(C(F)(F)F)n1` [Compound I-424a] had an IC50 of under 250 nM.

Turning to `N#Cc1cccc(C(=O)N[C@H]2CCn3nc(-c4ccnc(C(F)(F)F)c4)cc32)c1` [Compound I-342a, (S)-3-Cyano-N-(2-(2-(trifluoromethyl)pyridin-4-yl)-5,6-dihydro-4H-pyrrolo[1,2-b]pyrazol-4-yl)benzamide], the IC50 was under 250 nM.

Turning to `COc1cc(-c2cc3n(n2)CCC[C@@H]3NC(=O)c2cccc(C(F)(F)F)n2)ccn1` [Compound I-356a], the IC50 was in the range of 250 to 500 nM.

Turning to `Cc1cnc(C2CC2)cc1-c1cc2n(n1)CC[C@@H]2NC(=O)c1nc(C(F)(F)F)nn1C` [Compound I-492a, (S)-N-(2-(2-Cyclopropyl-5-methylpyridin-4-yl)-5,6-dihydro-4H-pyrrolo[1,2-b]pyrazol-4-yl)-1-methyl-3-(trifluoromethyl)-1H-1,2,4-triazole-5-carboxamide], the IC50 was under 250 nM.

On to `Cc1ccccc1C(=O)N[C@H]1CCc2nn(-c3ccnc(C(F)(F)F)c3)cc21` [Compound I-92a], for which the IC50 was under 250 nM.

With `Cn1nc(C(F)(F)F)cc1C(=O)N[C@H]1CCc2nn(-c3ccnc(C4CC4)c3)cc21` [Compound I-71a], the IC50 is under 250 nM.

`O=C(N[C@H]1CCCc2oc(-c3ccnc(C4CC4)c3)nc21)c1cc(C(F)(F)F)n(C(F)F)n1` [Compound I-130a, (S)-N-(2-(2-Cyclopropylpyridin-4-yl)-4,5,6,7-tetrahydrobenzo[d]oxazol-4-yl)-1-(difluoromethyl)-5-(trifluoromethyl)-1H-pyrazole-3-carboxamide] yielded an IC50 of under 250 nM.

In turn, `O=C(N[C@H]1CCn2nc(-c3cc(C(F)(F)F)ncc3F)cc21)c1cccc(C(F)(F)F)c1` [Compound I-139a, (S)-N-(2-(5-Fluoro-2-(trifluoromethyl)pyridin-4-yl)-5,6-dihydro-4H-pyrrolo[1,2-b]pyrazol-4-yl)-3-(trifluoromethyl)benzamide] gave an IC50 of under 250 nM.

Take `O=C(N[C@H]1CCn2nc(-c3ccnc(C(F)(F)F)c3)cc21)c1cc(F)cc(F)c1` [Compound I-120a, (S)-3,5-difluoro-N-(2-(2-(trifluoromethyl)pyridin-4-yl)-5,6-dihydro-4H-pyrrolo[1,2-b]pyrazol-4-yl)benzamide]: the IC50 was under 250 nM.

`CC(C)(O)c1cc(F)cc(C(=O)N[C@H]2CCn3nc(-c4ccnc(C(F)(F)F)c4)cc32)c1` [Compound I-570a, (S)-3-Fluoro-5-(2-hydroxypropan-2-yl)-N-(2-(2-(trifluoromethyl)pyridin-4-yl)-5,6-dihydro-4H-pyrrolo[1,2-b]pyrazol-4-yl)benzamide] registered an IC50 of under 250 nM.

As for `COc1cc(-c2cc3n(n2)CCC[C@@H]3NC(=O)c2cncc(C(F)(F)F)c2)ccn1` [Compound I-357a], the IC50 was under 250 nM.

`Cn1nc(C(F)(F)F)cc1C(=O)N[C@H]1CCCn2nc(-c3ccnc(C(C)(C)O)c3)cc21` [Compound I-444a] showed an IC50 of 500 to 1000 nM.

For the compound `Cn1nc(C(F)(F)F)nc1C(=O)N[C@H]1CCn2nc(-c3ccnc(C4CC4)c3)cc21` [Compound I-205a, (S)-N-(2-(2-Cyclopropylpyridin-4-yl)-5,6-dihydro-4H-pyrrolo[1,2-b]pyrazol-4-yl)-1-methyl-3-(trifluoromethyl)-1H-1,2,4-triazole-5-carboxamide], the IC50 is under 250 nM.

Compound `O=C(N[C@H]1CCc2nn(-c3ccnc(C(F)(F)F)c3)cc21)c1cc(Cl)cc(Cl)c1` [Compound I-99a] registered an IC50 of under 250 nM.

Turning to `Cn1nc(C(F)(F)F)cc1C(=O)N[C@@H]1CCCc2cc(-c3ccnc(C(F)(F)F)c3)[nH]c21` [Compound I-475b], the IC50 is over 1000 nM.

For the compound `Cn1nc(C(F)(F)F)cc1C(=O)NC1CCCc2nc(-c3ccnc(C(F)(F)F)c3)oc21` (centres unmarked) [Compound I-83], the IC50 is under 250 nM.

In turn, `Cn1nc(C(F)(F)F)cc1C(=O)N[C@H]1CCCc2nc(-c3ccnc(C(F)(F)F)c3)ccc21` (single isomer, unassigned) [I-149*] showed an IC50 of under 250 nM.

`Cn1nc(C(F)(F)F)cc1C(=O)NC1CCCn2nc(-c3ccnc(C(F)(F)F)c3)cc2C1` (centres unmarked) [Compound I-465]: the IC50 was under 250 nM.

The compound `Cn1nc(C(F)(F)F)cc1C(=O)NC1CCc2nn(-c3ccnc(C(F)(F)F)c3)cc2C1` (racemic) [Compound I-63, (rac)-1-Methyl-3-(trifluoromethyl)-N-(2-(2-(trifluoromethyl)pyridin-4-yl)-4,5,6,7-tetrahydro-2H-indazol-5-yl)-1H-pyrazole-5-carboxamide] registered an IC50 of under 250 nM.

`Cn1nc(C2CC2)cc1C(=O)N[C@H]1CCCn2nc(-c3ccnc(C(F)(F)F)c3)cc21` [Compound I-347a] showed an IC50 of under 250 nM.

As to `Cn1nc(C(F)(F)F)cc1C(=O)NC1Cc2cc(-c3ccnc(C(F)(F)F)c3)nn2C1` (centres unmarked) [Compound I-469], the half-maximal inhibitory concentration (IC50) was under 250 nM.
